# Data taken from US20250177422A1 (ZYLORION HEALTH INC., priority 2023, published 2025).
# What was measured:
# [1] = test system: neuronal progenitor/stem cell levels in mice brain; assay: Neuronal progenitor/stem cell levels in mice brain (immunohistochemistry); assay type: in vivo; settings: 14 days oral; co-crystal form A 3 mg/kg, aripiprazole 0.3 mg/kg; FIG. 6
# mice = assay: Cognitive performance, the Y-maze; assay type: in vivo; settings: oral, 15 days, FIG. 4
# Description: Cognitive performance, the Y-maze. Mice will be acclimated to a Y-maze having two familiar arms and one unfamiliar arm 1 day prior to testing (i.e., day-1). One the days of testing mice will be placed in the Y-maze and allowed to freely explore for 5 minutes. Behaviours scored will include total locomotion, time spent in each arm, number of arm entries, and correct alternations between the novel arm and familiar arms. A pro-cognitive effect will be reflected by increased time spent in the novel arm and increased percent correct alternations.
# active neurons = assay: Neuronal activation in mice (number of active neurons); settings: 21 days oral, co-crystal form A 3 mg/kg, aripiprazole 0.3 mg/kg, FIG. 7
# Description: For immunohistochemistry sampling, EdU (5-Ethynyl-2′-deoxyuridine, Lumiprobe, 100 μg/g) was injected together with the drugs for the first 7 days. On the day following the 14-day treatment period, the brains of the mice were dissected for subsequent analyses, including immunohistochemistry and electrophysiology (E-phys).
# BDNF = assay: Brain levels of BDNF in mice after acute treatment; assay type: in vivo; settings: 1 hour after oral administration, Co-crystal Form A 3 mg/kg, Aripiprazole 0.3 mg/kg, FIG. 5
smiles,measurement,setting,value
O=C1CCc2ccc(OCCCCN3CCN(c4cccc(Cl)c4Cl)CC3)cc2N1 [aripiprazole],neuronal progenitor/stem cell levels in mice brain,[1],no significant effect
same,"short-term and working memory (Y-maze), compared to control",mice,smaller but significant increase
same,change in neuronal activation (number of active neurons),active neurons,significant increase
same,brain levels of BDNF,BDNF,significant increase in brain levels of BDNF
